Each cell line was assayed with CC(C)(C)c1nc(-c2cccc(NS(=O)(=O)c3c(F)cccc3F)c2F)c(-c2ccnc(N)n2)s1 [Dabrafenib] (assay: relative viability (nuclei count vs DMSO), 5 days (fraction); higher = more cells survive). Conditions: 0.3 µM.
How it was run: (§1)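 Lung cancer cell lines were seeded into 1536-well plates, kept overnight at 37 °C and pinned with five library-drug doses (not always all listed) spaced by √10. After 5 days, nuclei were Hoechst-stained, imaged at 4× and counted with MetaXpress. Viability is treated-well nuclei over vehicle-well nuclei, taken as a median across plates. Plates needed control CV below 25% and at least one doubling.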
EMC-BAC-2 gave a relative viability of 0.751.
NCI-H2170 gave a relative viability of 0.895.
In the case of NCI-H1703, the relative viability is reported as 1.14.
UMC-11 showed a relative viability of 0.956.
NCI-H650 gave a relative viability of 0.564.
With LCLC-103H the relative viability was 1.07.
Work on NCI-H596 yielded a relative viability of 1.1.
HCC-827 showed a relative viability of 1.02.
COR-L 105 gave a relative viability of 1.13.
NCI-H1299 showed a relative viability of 0.842.
For NCI-H2126, the relative viability was 1.08.
In the case of A549, the relative viability is reported as 0.969.
Work on NCI-H647 yielded a relative viability of 1.01.
With LOU-NH91 the relative viability was 1.09.
For HCC-78, the relative viability was 1.05.
In the case of HCC-44, the relative viability is reported as 0.933.
NCI-H1651 was tested, and the relative viability was 0.948.
Cell Line NCI-H1755 has a relative viability of 0.971.
With HOP-62 the relative viability was 0.812.
For PC-14, the relative viability was 1.1.
With NCI-H1650 the relative viability was 1.36.
With ChaGo-K-1 the relative viability was 1.01.
Cell Line NCI-H1648 has a relative viability of 1.17.
With NCI-H2342 the relative viability was 1.1.
Work on NCI-H1623 yielded a relative viability of 1.13.

Each cell line was assayed with NC(=O)c1ccc(N(C(N)=O)c2c(F)cccc2F)nc1-c1ccc(F)cc1F [VX-702] in the same assay as above. Conditions: 0.02 µM.
How it was run: as §1
In the case of ABC-1, the relative viability is reported as 0.979.
CAL-12T showed a relative viability of 0.959.
NCI-H1944 was tested, and the relative viability was 0.941.
For NCI-H2085, the relative viability was 1.06.
Cell Line IA-LM has a relative viability of 0.956.
In the case of NCI-H2228, the relative viability is reported as 1.11.
Work on NCI-H441 yielded a relative viability of 1.14.
For NCI-H522, the relative viability was 0.989.
For EMC-BAC-2, the relative viability was 1.
With NCI-H2170 the relative viability was 1.09.
Work on NCI-H1703 yielded a relative viability of 0.936.
For UMC-11, the relative viability was 0.923.
Work on NCI-H650 yielded a relative viability of 1.04.
LCLC-103H was tested, and the relative viability was 0.98.
With NCI-H596 the relative viability was 1.04.
HCC-827 was tested, and the relative viability was 1.03.
In the case of COR-L 105, the relative viability is reported as 0.941.
Cell Line NCI-H1299 has a relative viability of 1.09.
In the case of NCI-H2126, the relative viability is reported as 1.03.
For A549, the relative viability was 0.999.
For NCI-H647, the relative viability was 0.855.
LOU-NH91 was tested, and the relative viability was 1.
HCC-78 gave a relative viability of 0.947.
Cell Line HCC-44 has a relative viability of 1.05.
In the case of NCI-H1651, the relative viability is reported as 1.02.
NCI-H1755 showed a relative viability of 1.01.
HOP-62 was tested, and the relative viability was 1.06.
Cell Line PC-14 has a relative viability of 1.11.
For NCI-H1650, the relative viability was 1.
ChaGo-K-1 showed a relative viability of 1.03.
Cell Line NCI-H1648 has a relative viability of 0.926.
NCI-H2342 was tested, and the relative viability was 0.987.
NCI-H1623 showed a relative viability of 0.834.

Same assay, conditions: 0.2 µM
Cell Line ABC-1 has a relative viability of 0.813.
Work on CAL-12T yielded a relative viability of 0.994.
Cell Line NCI-H1944 has a relative viability of 0.985.
NCI-H2085 was tested, and the relative viability was 1.05.
IA-LM gave a relative viability of 0.896.
Cell Line NCI-H2228 has a relative viability of 1.06.
In the case of NCI-H441, the relative viability is reported as 0.952.
For NCI-H522, the relative viability was 0.982.
EMC-BAC-2 gave a relative viability of 0.943.
For NCI-H2170, the relative viability was 0.946.
NCI-H1703 gave a relative viability of 0.91.
UMC-11 gave a relative viability of 0.857.
LCLC-103H showed a relative viability of 0.999.
For NCI-H596, the relative viability was 0.829.
HCC-827 showed a relative viability of 1.08.
Cell Line COR-L 105 has a relative viability of 0.961.
With NCI-H1299 the relative viability was 0.994.
For NCI-H2126, the relative viability was 0.963.
With A549 the relative viability was 0.928.
Cell Line NCI-H647 has a relative viability of 0.874.
Work on LOU-NH91 yielded a relative viability of 0.836.
Cell Line HCC-78 has a relative viability of 0.878.
HCC-44 gave a relative viability of 0.979.
NCI-H1651 gave a relative viability of 0.985.
For NCI-H1755, the relative viability was 1.03.
Cell Line HOP-62 has a relative viability of 0.988.
With PC-14 the relative viability was 1.03.
For NCI-H1650, the relative viability was 1.01.
Cell Line ChaGo-K-1 has a relative viability of 0.993.
Work on NCI-H1648 yielded a relative viability of 0.877.
Work on NCI-H2342 yielded a relative viability of 1.07.
Cell Line NCI-H1623 has a relative viability of 0.943.

Same assay, conditions: 0.6325 µM
With ABC-1 the relative viability was 0.903.
Work on CAL-12T yielded a relative viability of 1.04.
In the case of NCI-H1944, the relative viability is reported as 1.01.
With NCI-H2085 the relative viability was 1.
IA-LM showed a relative viability of 0.92.
For NCI-H2228, the relative viability was 0.84.
For NCI-H441, the relative viability was 0.934.
NCI-H522 gave a relative viability of 0.928.
In the case of EMC-BAC-2, the relative viability is reported as 0.98.
NCI-H2170 was tested, and the relative viability was 1.05.
For NCI-H1703, the relative viability was 0.849.
Work on UMC-11 yielded a relative viability of 0.82.
Cell Line NCI-H650 has a relative viability of 1.07.
For LCLC-103H, the relative viability was 0.952.
For NCI-H596, the relative viability was 1.02.
HCC-827 was tested, and the relative viability was 1.09.
With COR-L 105 the relative viability was 0.879.
NCI-H1299 showed a relative viability of 1.07.
NCI-H2126 gave a relative viability of 1.02.
A549 showed a relative viability of 1.02.
NCI-H647 was tested, and the relative viability was 0.996.
In the case of LOU-NH91, the relative viability is reported as 0.971.
HCC-78 showed a relative viability of 0.98.
HCC-44 was tested, and the relative viability was 1.08.
Cell Line NCI-H1651 has a relative viability of 0.998.
For NCI-H1755, the relative viability was 1.1.
Work on HOP-62 yielded a relative viability of 1.09.
PC-14 was tested, and the relative viability was 1.12.
Cell Line NCI-H1650 has a relative viability of 1.09.
Cell Line ChaGo-K-1 has a relative viability of 0.994.
NCI-H1648 gave a relative viability of 0.688.
With NCI-H2342 the relative viability was 0.903.
Cell Line NCI-H1623 has a relative viability of 1.02.

Same assay, conditions: 2 µM
Work on ABC-1 yielded a relative viability of 1.02.
In the case of CAL-12T, the relative viability is reported as 1.07.
With NCI-H1944 the relative viability was 0.443.
For NCI-H2085, the relative viability was 0.99.
In the case of IA-LM, the relative viability is reported as 1.04.
NCI-H2228 gave a relative viability of 1.08.
In the case of NCI-H441, the relative viability is reported as 0.992.
Work on NCI-H522 yielded a relative viability of 0.992.

From the supplement of paper PMC10307832
